Several values for one entry are separate records, joined by “and”; a condition that tells them apart may be missing. Equal entries are not always repeated.
With COc1ccc2c(=O)cc(-c3ccccc3)oc2c1 [7-methoxyflavone] as the compound, how does the melting point read?
The melting point was 110 °C.

With Cc1ccc(O)c2c1CCC2 [7-methyl-4-indanol] as the compound, how does the melting point read?
Its melting point is 81 °C.

Which melting point does the source give for O=[N+]([O-])c1ccc(O)c2ncccc12 [8-hydroxy-5-nitroquinoline] here?
Its melting point is 180 °C.

For c1ccc2c(c1)Cc1ccccc1C2 [9,10-Dihydroanthracene], which melting point is on record?
Its melting point is 109 °C.

With c1ccc(-c2c3ccccc3c(-c3ccccc3)c3ccccc23)cc1 [9,10-Diphenylanthracene] as the compound, how does the melting point read?
The melting point was 249 °C.

With O=C1c2ccccc2C(=O)c2ccccc21 [9,10-anthraquinone] as the compound, how does the melting point read?
Its melting point is 285 °C.

Which melting point does the source give for c1ccc(-c2c3ccccc3c(-c3ccccc3)c3ccccc23)cc1 [9,10-diphenylanthracene] here?
Its melting point is 251 °C.

With Cc1c2ccccc2cc2ccccc12 [9-Methylanthracene] as the compound, how does the melting point read?
The melting point was 78 °C.

With O=C1c2ccccc2-c2ccccc21 [9-fluorenone] as the compound, how does the melting point read?
Its melting point is 84 °C.

With O=C(Cl)OCC1c2ccccc2-c2ccccc21 [9-fluorenylmethyl chloroformate] as the compound, how does the melting point read?
Its melting point is 62 °C.

Which melting point does the source give for O=C1c2ccccc2-c2ccccc21 [9H-Fluoren-9-one] here?
Its melting point is 83 °C.

For c1ccc2c(c1)Cc1ccccc1-2 [9H-Fluorene], which melting point is on record?
Its melting point is 116 °C.

With O=c1c2ccccc2sc2ccccc12 [9H-Thioxanthen-9-one] as the compound, how does the melting point read?
The melting point was 209 °C.

Which melting point does the source give for OCCCCCCCCCCc1ccccc1 [10-phenyl-1-decanol] here?
Its melting point is 36 °C.

Which melting point does the source give for CC(CCC(=O)O)C1CCC2C3CCC4CC(=O)CCC4(C)C3CC(O)C12C (stereo not drawn) [12-hydroxy-3-oxocholan-24-oic acid] here?
Its melting point is 108 °C.

For CCCCCCCCCCCCCC(=O)CCCCCCCCCCCCC [14-heptacosanone], which melting point is on record?
The melting point was 78 °C.

Which melting point does the source give for O=C(O)CCCCCCCCCCCCCCO [15-hydroxypentadecanoic acid] here?
The melting point was 86 °C.

With O=C(O)CCCCCCCCCCCCCCCO [16-hydroxyhexadecanoic acid] as the compound, how does the melting point read?
The melting point was 99 °C.

Which melting point does the source give for CC(=O)OC1CCC2(C)C(CCC3C2CCC2(C)C3CCC2(C)CCc2ccccc2)C1 (stereo not drawn) [17-methyl-21-phenylpregnan-3-yl acetate] here?
The melting point was 135 °C.

For CCCOC1CCC2C3CCC4=CC(=O)CCC4(C)C3CCC12C (stereo not drawn) [17-propoxyandrost-4-en-3-one], which melting point is on record?
Its melting point is 118 °C.

With C[C@]12CCC(=O)C=C1CC[C@@H]1[C@@H]2CC[C@@]2(C)[C@H]1CC[C@]2(C)O [17a-Methyltestosterone] as the compound, how does the melting point read?
The melting point was 163 °C.

Which melting point does the source give for C=C(C)C1CC=C(C)/C(=N/O)C1 (stereo not drawn) [(1E)-5-Isopropenyl-2-methyl-2-cyclohexen-1-one oxime] here?
Its melting point is 72 °C.

For O/N=C(\Cc1ccccc1)c1ccc2ccccc2c1 [(1E)-N-hydroxy-1-(naphthalen-2-yl)-2-phenylethanimine], which melting point is on record?
Its melting point is 129 °C.

Which melting point does the source give for O=C(/C=C/c1ccc2ccccc2c1)/C=C/c1ccc2ccccc2c1 [(1E,4E)-1,5-Di(2-naphthyl)-1,4-pentadien-3-one] here?
The melting point was 244 °C and 245 °C.

Which melting point does the source give for CC1(C)[C@H]2CC[C@]1(CS(=O)(=O)Cl)C(=O)C2 [(1R)-camphor-10-sulfonyl chloride] here?
Its melting point is 66 °C.

For CC1(C)[C@@H]2CC[C@@]1(C)C(=O)C2 [(1R)-camphor], which melting point is on record?
Its melting point is 178 °C.

For CC1(C)[C@@H]2CC[C@@]1(C)C(=O)C2=O [(1R)-camphorquinone], which melting point is on record?
The melting point was 200 °C.

For Cl[C@H]1[C@H](Cl)[C@@H](Cl)[C@H](Cl)[C@H](Cl)[C@H]1Cl [(1R,2R,3R,4R,5S,6S)-1,2,3,4,5,6-Hexachlorocyclohexane], which melting point is on record?
Its melting point is 159 °C.

Which melting point does the source give for CC1(C)[C@@H](C(=O)O)CC[C@@]1(C)C(=O)O [(1R,3S)-camphoric acid] here?
Its melting point is 186 °C.

Which melting point does the source give for CC1(C)[C@H]2CC[C@]1(C)C(=O)C2 [(1S)-camphor] here?
The melting point was 178 °C.

Which melting point does the source give for C1=C\CCCC\C=C/1 [(1Z,3Z)-Cycloocta-1,3-diene] here?
The melting point was -53 °C.

With O=C(O)COc1ccc(Cl)cc1Cl [(2,4-Dichlorophenoxy)acetic acid] as the compound, how does the melting point read?
The melting point was 138 °C.

With N#CCc1ccccc1[N+](=O)[O-] [(2-Nitrophenyl)acetonitrile] as the compound, how does the melting point read?
Its melting point is 84 °C.

For Nc1cc(Br)ccc1C(O)c1ccccc1 (stereo not drawn) [(2-amino-4-bromophenyl)(phenyl)methanol], which melting point is on record?
The melting point was 113 °C.

Which melting point does the source give for O=C(/C=C/c1ccccc1[N+](=O)[O-])c1cccc(O)c1 [(2E)-1-(3-Hydroxyphenyl)-3-(2-nitrophenyl)-2-propen-1-one] here?
The melting point was 188 °C.

For O=C(/C=C/c1ccc(-c2ccccc2)o1)c1ccccc1 [(2E)-1-phenyl-3-(5-phenyl-2-furyl)prop-2-en-1-one], which melting point is on record?
The melting point was 80 °C.

Which melting point does the source give for N#C/C(=C\c1ccccc1)c1nc2ccccc2s1 [(2E)-2-(1,3-Benzothiazol-2-yl)-3-phenylacrylonitrile] here?
Its melting point is 106 °C.

For O=C(O)/C=C/c1cccc2c(Br)ccc([N+](=O)[O-])c12 [(2E)-3-(5-bromo-8-nitronaphthalen-1-yl)prop-2-enoic acid], which melting point is on record?
Its melting point is 142 °C.

With O=C/C=C/c1ccccc1 [(2E)-3-Phenylacrylaldehyde] as the compound, how does the melting point read?
The melting point was -7 °C.

Which melting point does the source give for O=C(O)/C(=C/c1cccc2ccccc12)c1ccccc1 [(2E)-3-naphthalen-1-yl-2-phenylprop-2-enoic acid] here?
Its melting point is 161 °C.

With C/C=C/C=O [(2E)-But-2-enal] as the compound, how does the melting point read?
The melting point was -76 °C.

With C/C=C/CC [(2E)-Pent-2-ene] as the compound, how does the melting point read?
Its melting point is -140 °C.

With OC[C@@H](O)COCc1ccccc1 [(2R)-3-(Benzyloxy)propane-1,2-diol] as the compound, how does the melting point read?
Its melting point is 27.5 °C.

With C[C@H](O)[C@@H](C)O [(2R,3S)-Butane-2,3-diol] as the compound, how does the melting point read?
The melting point was 33 °C.

Which melting point does the source give for C[C@H](O)CN [(2S)-1-amino-2-propanol] here?
The melting point was 22.5 °C and 25 °C.

For CO/C(C)=C(\C#N)c1ccccc1[N+](=O)[O-] [(2Z)-3-methoxy-2-(2-nitrophenyl)but-2-enenitrile], which melting point is on record?
Its melting point is 68 °C.

For CC(=N/O)/C(C)=N\O [(2Z,3Z)-N,N'-Dihydroxybutane-2,3-diimine], which melting point is on record?
Its melting point is 238 °C.

Which melting point does the source give for COc1ccc(CC(=O)O)cc1OC [(3,4-Dimethoxyphenyl)acetic acid] here?
Its melting point is 98 °C.

With OCc1cccc(Oc2ccccc2)c1 [(3-Phenoxyphenyl)methanol] as the compound, how does the melting point read?
Its melting point is 10 °C.

For COc1ccc(/C(C)=C/C(C)=O)cc1 [(3E)-4-(4-methoxyphenyl)pent-3-en-2-one], which melting point is on record?
The melting point was 53 °C.

For CN1CC[C@@H](c2ccc(F)cc2)[C@H](CO)C1 [(3S,4R)-4-(4-fluorophenyl)-1-methyl-3-piperidinemethanol], which melting point is on record?
The melting point was 96 °C.

With C[C@]12CC[C@H](O)[C@@H](O)[C@H]1CC[C@@H]1[C@@H]2CC[C@]2(C)C(=O)CC[C@@H]12 [(3beta,4alpha,5beta)-3,4-Dihydroxyandrostan-17-one] as the compound, how does the melting point read?
Its melting point is 221 °C.

With C[C@]12CC[C@@H]3O[C@@H]3[C@H]1CC[C@@H]1[C@@H]2CC[C@]2(C)C(=O)CC[C@@H]12 [(3beta,4beta,5beta)-3,4-Epoxyandrostan-17-one] as the compound, how does the melting point read?
Its melting point is 136 °C.

With [O-][P+](c1ccccc1)(c1ccccc1)C1C=C(c2ccccc2)C=C(c2ccccc2)O1 (stereo not drawn) [(4,6-diphenyl-2H-pyran-2-yl)(diphenyl)phosphane oxide] as the compound, how does the melting point read?
Its melting point is 152 °C.

For C[C@]12CCC(=O)C[C@H]1CC[C@@H]1[C@@H]2CC[C@]2(C)C(=O)CC[C@@H]12 [(5beta)-Androstane-3,17-dione], which melting point is on record?
The melting point was 147 °C.

For COc1cc(CNC(=O)CCCC/C=C/C(C)C)ccc1O [(6E)-N-(4-Hydroxy-3-methoxybenzyl)-8-methylnon-6-enamide], which melting point is on record?
Its melting point is 66 °C.

With C=C[C@H]1C[N@@]2CC[C@H]1C[C@H]2[C@H](O)c1ccnc2ccccc12 [(8alpha,9R)-Cinchonan-9-ol] as the compound, how does the melting point read?
The melting point was 200 °C.

With CC(C)Cc1ccc(C(C)C(=O)O)cc1 (stereo not drawn) [(+/+)-ibuprofen] as the compound, how does the melting point read?
The melting point was 74.6 °C.

Which melting point does the source give for O=C4\C=C3/[C@@H]([C@H]2CC[C@]1([C@@H](CC[C@]1(C#C)O)[C@@H]2CC3)CC)CC4 [(-)-levonorgestrel] here?
Its melting point is 236 °C.

With CCCCc1ccc(/N=N/c2ccc(OCCC)cc2)cc1 [(E)-1-(4-butylphenyl)-2-(4-propoxyphenyl)diazene] as the compound, how does the melting point read?
Its melting point is 67 °C.

For O=C(O)/C(=C/c1ccc([N+](=O)[O-])cc1)c1ccc(F)cc1 [(E)-2-(4-Fluorophenyl)-3-(4-nitrophenyl)propenoic acid], which melting point is on record?
Its melting point is 242 °C.

Which melting point does the source give for [O-]/[N+](=N\c1ccccc1)c1ccc(/N=N/c2ccc(/[N+]([O-])=N/c3ccccc3)cc2)cc1 [(E)-bis{4-[(Z)-phenyl-NNO-azoxy]phenyl}diazene] here?
Its melting point is 139 °C.

Which melting point does the source give for CC(C)(C)OC(=O)N1CCC[C@@H](O)C1 [(R)-1-boc-3-hydroxypiperidine] here?
The melting point was 47 °C.

Which melting point does the source give for ClC(Cl)(Cl)c1ccccc1 [(Trichloromethyl)benzene] here?
Its melting point is -5 °C.

Which melting point does the source give for FC(F)(F)c1ccccc1 [(Trifluoromethyl)benzene] here?
The melting point was -27 °C.

Which melting point does the source give for Cl/C=C\Cl [(Z)-1,2-Dichloroethene] here?
Its melting point is -80 °C.

With N#CC(C#N)=Nc1ccccc1 [(phenylimino)propanedinitrile] as the compound, how does the melting point read?
The melting point was 87 °C.

With O=C(O)CS(=O)(=O)c1ccccc1 [(phenylsulfonyl)acetic acid] as the compound, how does the melting point read?
Its melting point is 112 °C.

With [2H]C([2H])([2H])C([2H])([2H])C([2H])([2H])C([2H])([2H])C([2H])([2H])C([2H])([2H])C([2H])([2H])C([2H])([2H])C([2H])([2H])C([2H])([2H])C([2H])([2H])C([2H])([2H])C([2H])([2H])C([2H])([2H])C([2H])([2H])C([2H])([2H])C([2H])([2H])C(=O)O [(~2~H_35_)Octadecanoic acid] as the compound, how does the melting point read?
Its melting point is 67 °C.

With CC(N)=O [Acetamide] as the compound, how does the melting point read?
Its melting point is 81 °C.

For CC#N [Acetonitrile], which melting point is on record?
The melting point was -46 °C.

With Nc1nc(=O)c2ncn(COCCO)c2[nH]1 [Aciclovir] as the compound, how does the melting point read?
Its melting point is 257 °C.

For C=CC(=O)O [Acrylic Acid], which melting point is on record?
The melting point was 13.5 °C.

For C1[C@H]3C[C@@H]2C[C@@H](C[C@H]1C2)C3 [Adamantane], which melting point is on record?
The melting point was 269 °C.

For Nc1ncnc2c1ncn2[C@@H]1O[C@H](CO)[C@@H](O)[C@H]1O [Adenosine] [listing 1 of 2 here], which melting point is on record?
Its melting point is 236 °C.

For Nc1ncnc2c1ncn2[C@@H]1O[C@H](CO)[C@@H](O)[C@H]1O [Adenosine] [listing 2 of 2 here], which melting point is on record?
Its melting point is 234 °C.

With NC(=O)CCCCC(N)=O [Adipamide] as the compound, how does the melting point read?
The melting point was 220 °C.

For NC12CC3CC(CC(C3)C1)C2 [Amantadine], which melting point is on record?
Its melting point is 180 °C.

Which melting point does the source give for Nc1ccc(C(=O)O)c(O)c1 [Aminosalicylic Acid] here?
The melting point was 150 °C.

Which melting point does the source give for CCCCCN [Amylamine] here?
Its melting point is -55 °C.

With O=C(O)c1c2ccccc2cc2ccccc12 [Anthracene-9-carboxylic acid] as the compound, how does the melting point read?
The melting point was 213 °C.

With c1ccc2cc3ccccc3cc2c1 [Anthracene] as the compound, how does the melting point read?
Its melting point is 216 °C.

For Cc1cc(=O)n(-c2ccccc2)n1C [Antipyrine], which melting point is on record?
Its melting point is 112 °C.

Source: the Bradley open melting point set (2014)
